Measured values from publication PMC12702776 (Cancer Gene Therapy, 2025).

Key:
DHR2 domain of DOCK2 = test system: DHR2 domain of DOCK2; parameters: method as in PMID 22520755; details: cited from earlier work
DOCK2 = biological target: T1, DOCK2 (Homo sapiens, UniProt Q92608); assay: Active GTPase pull-down assay in IGR1 melanoma cells treated with DOCK2 inhibitor; format: cell-based; details: serum-stimulated IGR1 cells, 25 µM and 100 µM
T1 construct: endogenous in cells; host or cells: IGR1 human melanoma cells
T1 sequence (Q92608 whole entry): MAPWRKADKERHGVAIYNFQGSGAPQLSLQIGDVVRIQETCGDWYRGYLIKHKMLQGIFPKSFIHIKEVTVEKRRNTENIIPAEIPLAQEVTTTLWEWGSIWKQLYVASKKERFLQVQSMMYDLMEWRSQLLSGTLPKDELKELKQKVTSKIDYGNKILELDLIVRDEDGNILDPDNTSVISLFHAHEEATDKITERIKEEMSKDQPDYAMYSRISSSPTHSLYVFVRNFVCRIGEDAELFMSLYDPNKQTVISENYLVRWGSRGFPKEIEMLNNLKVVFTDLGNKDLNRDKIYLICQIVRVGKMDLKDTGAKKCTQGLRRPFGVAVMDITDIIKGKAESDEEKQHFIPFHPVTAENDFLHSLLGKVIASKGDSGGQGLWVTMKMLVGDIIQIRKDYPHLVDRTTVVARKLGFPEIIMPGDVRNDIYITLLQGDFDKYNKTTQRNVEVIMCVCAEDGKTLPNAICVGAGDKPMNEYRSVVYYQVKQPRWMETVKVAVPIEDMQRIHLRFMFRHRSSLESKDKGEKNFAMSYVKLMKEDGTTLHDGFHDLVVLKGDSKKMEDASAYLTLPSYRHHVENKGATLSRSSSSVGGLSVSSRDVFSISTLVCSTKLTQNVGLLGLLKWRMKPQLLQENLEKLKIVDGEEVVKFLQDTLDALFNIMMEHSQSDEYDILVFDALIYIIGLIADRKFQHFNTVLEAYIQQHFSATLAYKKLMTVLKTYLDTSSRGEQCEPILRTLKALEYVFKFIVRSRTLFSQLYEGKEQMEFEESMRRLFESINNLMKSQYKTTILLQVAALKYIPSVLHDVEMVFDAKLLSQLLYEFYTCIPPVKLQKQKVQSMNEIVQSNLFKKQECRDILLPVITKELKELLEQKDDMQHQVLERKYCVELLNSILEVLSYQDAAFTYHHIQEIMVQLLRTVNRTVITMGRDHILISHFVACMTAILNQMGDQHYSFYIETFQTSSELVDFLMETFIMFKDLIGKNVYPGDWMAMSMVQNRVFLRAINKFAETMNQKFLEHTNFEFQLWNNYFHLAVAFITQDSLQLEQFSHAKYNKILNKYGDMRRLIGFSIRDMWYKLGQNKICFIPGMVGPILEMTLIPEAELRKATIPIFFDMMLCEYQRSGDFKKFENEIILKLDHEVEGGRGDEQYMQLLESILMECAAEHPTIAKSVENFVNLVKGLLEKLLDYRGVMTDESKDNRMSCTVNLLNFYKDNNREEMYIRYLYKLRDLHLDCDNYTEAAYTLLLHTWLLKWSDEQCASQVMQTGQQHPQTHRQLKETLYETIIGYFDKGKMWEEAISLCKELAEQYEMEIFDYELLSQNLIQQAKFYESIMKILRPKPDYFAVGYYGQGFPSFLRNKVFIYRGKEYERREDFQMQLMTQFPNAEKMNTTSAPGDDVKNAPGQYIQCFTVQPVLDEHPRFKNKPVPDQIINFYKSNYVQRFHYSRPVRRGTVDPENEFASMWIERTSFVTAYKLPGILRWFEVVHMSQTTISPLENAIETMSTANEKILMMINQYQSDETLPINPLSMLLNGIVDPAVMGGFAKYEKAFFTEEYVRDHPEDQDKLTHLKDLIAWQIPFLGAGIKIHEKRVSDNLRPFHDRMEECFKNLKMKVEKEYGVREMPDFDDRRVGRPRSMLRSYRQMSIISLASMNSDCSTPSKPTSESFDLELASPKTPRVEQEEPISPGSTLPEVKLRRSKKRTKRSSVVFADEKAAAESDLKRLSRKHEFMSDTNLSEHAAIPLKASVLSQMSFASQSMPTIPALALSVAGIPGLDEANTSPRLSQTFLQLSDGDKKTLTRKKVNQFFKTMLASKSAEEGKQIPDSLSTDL
Experimental: HEK-293T and IGR1 human melanoma cells were cultured under serum-stimulated and serum-starved conditions in DMEM supplemented with 10% FBS and 1% penicillin/streptomycin. The HEK-293T cells were then transfected with RAC1 constructs containing N-terminal 10×His–triple FLAG tags using TurboFect™ (Thermo Fisher Scientific), according to the manufacturer’s protocol. The HEK-293T cells were cultured and harvested under serum-stimulated or serum-starved conditions without additional treatment. IGR1 cells, in contrast, were treated with the DOCK2 inhibitor CPYPP (MedChemExpress) at 25 µM and 100 µM concentrations, with 0.5% DMSO as a vehicle control. After treatment, cells were harvested and lysed, and protein concentrations were determined using the Bradford assay. Detailed protocols, including buffer compositions, are provided in the Supplementary Information.
Experiments were conducted under both serum-stimulated and serum-starved conditions, as described previously. […] After incubation, the beads were washed and analyzed by SDS-PAGE followed by immunoblotting. […]
Cell culture, transfection, and treatment. […] The resulting supernatants were collected for downstream applications, and protein concentrations were determined using the Bradford assay.
Active GTPase pull-down assay. […] Samples were analyzed by SDS-PAGE and immunoblotting […]

IGR1 cells = details: cited from earlier work
RAC1^F28L = biological target: T2, RAC1^F28L (Homo sapiens, UniProt P63000, F28L); assay: Nucleotide-binding assay (stopped-flow fluorimetry); details: faster than RAC1 WT
T2 construct: GST (N); made in house; host or cells: Escherichia coli
Experimental: (§1) The nucleotide-binding properties of RAC1 GTPases were assessed by stopped-flow fluorimetry, as described. Nucleotide association and dissociation rates were measured using fluorescent nucleotides (mdGDP and mGppNHp) and varying RAC1 concentrations. Association (kon) and dissociation (koff) rate constants were determined, and equilibrium dissociation constants (Kd) were calculated as described in Box 2. Detailed procedures are provided in the Supplementary Materials.
(§2) Nucleotide-binding assay. The nucleotide-binding properties of the RAC1 GTPases were assessed using a stopped-flow fluorimetry approach, as described (10). ucleotide association was measured with 0.1 µM fluorescently labeled nucleotides, such as mdGDP and mGppNHp, and varying concentrations of nucleotide-free RAC1 proteins (0.25–5 μM). Measurements were conducted in a buffer containing 30 mM Tris-HCl, pH 7.5, 10 mM KH2PO4/K2HPO4, 5 mM MgCl2, and 3 mM DTT, at 25 °C. The association rate constant (kon) was determined by plotting the observed rate constants (kobs) against the concentration of nucleotide-free RAC1 and analyzing the slope via linear regression using Origin software. The dissociation rate constant (koff) of the fluorescent nucleotide from RAC1 proteins (0.1 µM) was measured by adding a 200-fold excess of the non-fluorescent nucleotide (20 µM). The affinity of RAC1 proteins for GDP and GppNHp was calculated by dividing koff by kon, yielding the equilibrium dissociation constants (Kd), as defined in Box 2 of the main text.

RAC1^P29S = biological target: T3, RAC1^P29S (Homo sapiens, UniProt P63000, P29S); assay: as above; details: RAC1 P29S compared to RAC1 WT
T3 construct: GST (N); made in house; host or cells: Escherichia coli
Experimental: as §1, §2

RAC1^T17N = biological target: T4, RAC1^T17N (Homo sapiens, UniProt P63000, T17N); assay: as above
T4 construct: GST (N); made in house; host or cells: Escherichia coli
Experimental: as §1, §2

RAC1^WT = biological target: T5, RAC1^WT (Homo sapiens, UniProt P63000); assay: as above
T5 construct: GST (N); made in house; host or cells: Escherichia coli
Experimental: as §1, §2

Row | Molecule | sensitivity of IGR1 cells (RAC1^P29S, BRAF^V600K) (IGR1 cells) | Kd, lower affinity P29S vs WT (RAC1^P29S) [fold] | kon, reduction P29S vs WT (RAC1^P29S) [fold] | Kd (RAC1^WT) [nM] | also measured
1 | O=C1NN(c2ccccc2)C(=O)/C1=C/C=C/c1ccccc1Cl [CPYPP] |  |  |  |  | effect on DOCK2 catalytic activity (DHR2 domain of DOCK2): reversibly blocking its catalytic activity; effect on RAC1^P29S activation (DOCK2): reduced RAC1^P29S activation in a dose-dependent manner
2 | CC(C)(C)c1nc(-c2cccc(NS(=O)(=O)c3c(F)cccc3F)c2F)c(-c2ccnc(N)n2)s1 [dabrafenib] | reduced sensitivity |  |  |  | 
3 | CNc1ccccc1C(=O)O[C@H]1C[C@H](n2cnc3c(=O)[nH]c(N)nc32)O[C@@H]1COP(=O)(O)OP(=O)(O)O [mdGDP, methylanthraniloyl-2'-deoxy-guanosine 5′-diphosphate] |  | 147 | 14 | 0.3 | intrinsic nucleotide dissociation rate, F28L vs WT (RAC1^F28L): 20 fold; koff, increase P29S vs WT (RAC1^P29S): 10 fold; decrease in binding affinity, T17N vs WT (RAC1^T17N; RAC1 T17N compared to RAC1 WT): 1346 fold; dissociation rate, T17N vs WT (RAC1^T17N; higher than RAC1 WT): 410 fold
4 | CCCS(=O)(=O)Nc1ccc(F)c(C(=O)c2c[nH]c3ncc(-c4ccc(Cl)cc4)cc23)c1F [vemurafenib] | reduced sensitivity |  |  |  | 
5 | methylanthraniloyl guanosine 5'-[beta,gamma-imido]triphosphate [mGppNHp] |  | 289 | 27 | 0.6 | 
